Consider one compound from PMC5794198, “Inhibitors of Trypanosoma cruzi Sir2 related protein 1 as potential drugs against Chagas disease” (PLoS Neglected Tropical Diseases, 2018).

One series in a line: Gastric stability. The series is classed as in vitro ADME.
The test system of series [1] is Hepatocytes. The series is described as follows: HCS injury score panel in primary hepatocytes. The class given is cell-based. On the procedure: In vitro assays were also performed in primary cells (hepatocytes and neurons) to evaluate BNIPSpd (9) potential toxicity: (a) host cell nuclei counting after HOECHST staining, (b) viability by measuring the metabolism of WST-8 probe, (c) apoptosis induction through caspase 3/7 activation, (d) evaluation of mitochondrial dysfunction by measuring the membrane potential using TMRM probe, (e) membrane integrity by measuring the extracellular LDH, (f) DNA damage by histone H2AX phosphorylation (exclusively in hepatocytes) and (g) imaging of neurite outgrowth (exclusively in neurons).
The assays were performed 24 hrs after cell collection and isolation. […] Then, absorbance at 450 nm was measured in order to analyse cell viability (WST-8). Cells were washed three times and analysed using the automatic fluorescence microscope BD Pathway 855. […] Data were analysed with AttoVision (Becton Dickinson). […] LDH release was measured in mU/L in culture media obtained from cells subjected to treatments for 24 hrs, by measuring the released LDH rate of oxidation of NADH to NAD^+ at 340 nm using Synergy 2 from BioTech.
DNA damage was evaluated by washing cells with PBS and fixation using paraformaldehyde 3% in PBS for 15 mins. […] To determine the DNA damage, intensity in the nuclei was analyzed using AttoVision software (Becton Dickinson). […]

The target in a further series is TcSir2rp1 (Trypanosoma cruzi, UniProt Q4DVL9). Kind of series: TcSir2rp1 NAD+-dependent deacetylase fluorimetric assay (CycLex kit). The series is classed as biochemical.
TcSir2rp1, sequence (Q4DVL9 entry or part of it): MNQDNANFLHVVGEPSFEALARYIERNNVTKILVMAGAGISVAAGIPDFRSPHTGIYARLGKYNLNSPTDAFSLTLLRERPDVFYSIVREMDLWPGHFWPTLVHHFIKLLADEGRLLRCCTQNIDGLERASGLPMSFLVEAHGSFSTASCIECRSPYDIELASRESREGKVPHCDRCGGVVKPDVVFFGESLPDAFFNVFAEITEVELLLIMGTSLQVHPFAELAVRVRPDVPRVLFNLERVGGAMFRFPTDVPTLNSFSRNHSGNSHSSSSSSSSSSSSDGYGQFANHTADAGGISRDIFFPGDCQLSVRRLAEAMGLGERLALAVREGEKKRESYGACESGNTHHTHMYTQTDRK
Series [2] concerns Hepatocytes. Kind of series: MTT cytotoxicity on hepatocytes. To be noted: MTT. The series is classed as cell-based. The method, then:
(§1) To evaluate toxicity towards mammalian cell lines (hepatocytes (Seralab), neurons and MDCK cells (ATCC); a renal cell line from dogs), all the compounds were assayed with MTT [66]. Additionally, for cardiotoxicity evaluation, where toxic effects in cardiomyocytes could be affecting their function before being lethal, a hERG assay was performed according to the manufacturer’s protocol Predictor hERG Fluorescence Polarization Assay (Invitrogen). Briefly, inhibition of hERG channel was analysed by competition of BNIPSpd and a high-affinity red fluorescent hERG channel ligand. BNIPSpd (9) was mixed with the ligand and membranes containing hERG channel, incubated for 2 hrs at RT and the fluorescence polarization was measured using 530 / 590 nm ex/em filters using the Synergy 2 plate reader (Biotek).

Series [3] can be described thus: MTT cytotoxicity on hepatocytes. The series is classed as cell-based. Conditions: hepatocytes, CC50 cell line / EC50 T. cruzi; read-out: Selectivity Index, hepatocytes. The method, then:
as §1

Where [4] appears, read: single dose 10 μM, 200 μM NAD+, 10 μM peptide.

Turning to `O=C1c2cccc3cccc(c23)C(=O)N1CCCNCCCCNCCCNCCCN1C(=O)c2cccc3cccc(c23)C1=O` [Compound 9, BNIP Spermidine], the Gastric stability in the series “Gastric stability” was found to be 100%. The “Injury score for hepatocytes” value in the series with Hepatocytes [1] (at 50 μM) was “low injury (low injury (1 to <5))”; with Hepatocytes [1] (combined score of cytotoxicity panel, 24 hrs), “low injury (low injury (1 to <5))”. Also, the inhibition at 50 µM at TcSir2rp1 (50 μM) amounted to 72 ± 6%. On TcSir2rp1 (setting [4]), the “Inhibition of NAD+-dependent deacetylase activity of TcSir2rp1” value was “statistically significant inhibition”. Also, the inhibition at 10 µM on TcSir2rp1 (setting [4]) is roughly 50%. Further, in the series with Hepatocytes [2], the “Hepatotoxicity (Hepatocytes) cytotoxicity” value was no less than 3.1 µM. Moreover, in series [3], the selectivity ratio was roughly 1.
